# Experimental data taken from patent US20230091047A1 (priority 2019, published 2023).
# Read-outs that look alike come from different tables or passages of the source.
# Assays:
# [1] = tested on: HBV (HepG2.117 cell line, inducibly HBV producing); assay: Anti-HBV activity: intracellular HBV DNA by real-time PCR in HepG2.117 cells after 3 days of treatment; assay type: cell-based, hepatitis B virus
# Summary of the method: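 Antiviral effect is expressed through intracellular HBV DNA levels, determined by real-time PCR with a virus-specific probe. These levels were measured after 3 days of treatment with compound dilutions, in HepG2.117 cells induced to replicate HBV.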
# HepG2 cells = assay: in vitro; assay type: cell-based
# Summary of the method: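 Luminescent ATP quantitation served as the viability endpoint following a 3- or 4-day incubation with test compounds.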
# [2] = HepG2.117 cells, 3 days of treatment, intracellular HBV DNA by real-time PCR; mean value; read-out: EC50 (μM, mean value)
# [3] = 3-days incubation (unmarked values), HepG2 or HepG2.117 cells, ATPlite, mean value, read-out: CC50 (μM, mean value)
# [4] = HepG2.117 cells, intracellular HBV DNA by real-time PCR, 3 days of treatment, mean value; read-out: EC50 (μM, mean value)
# [5] = HepG2 or HepG2.117 cells, ATPlite, 3-days incubation (not marked with *), mean value, read-out: CC50 (μM, mean value)
SMILES,"EC50 [1, 4]",CC50 (HepG2 cells; [5]),other results
"CC(C)Nc1nc2c(c(=O)n1-c1ccc(S(C)(=O)=O)cc1)C[C@@H](C)N(C(=O)c1ccc(Cl)c(Cl)c1)C2 [Compound C142, (6R)-7-(3,4-dichlorobenzoyl)-3-[4-(methanesulfonyl)phenyl]-6-methyl-2-[(propan-2-yl)amino]-5,6,7,8-tetrahydropyrido[3,4-d]pyrimidin-4(3H)-one]",,,"EC50 [1, 2]: 0.12 µM; CC50 (HepG2 cells; [3]): > 50 µM"
"CNC(=O)c1ccc(-n2c(N[C@@H](C)C3CC3)nc3c(c2=O)C[C@@H](C)N(C(=O)c2ccc(Cl)c(C(F)(F)F)c2)C3)c(Cl)c1 (single isomer, unassigned) [Compound C676b]",0.02 µM,28.7 µM,
"Cc1c[nH]c(-c2ccc(-n3c(NC(C)C)nc4c(c3=O)C[C@@H](C)N(C(=O)c3ccc(Cl)c(Cl)c3)C4)c(Cl)c2)n1 (single isomer, unassigned) [Compound C455a]",,17.6 µM,"EC50 ([1]; Hepatitis B virus, HepG2.117, 72 h, HepG2.117 cells, intracellular HBV DNA by real-time PCR, 3 days of treatment, mean value; read-out: EC50 (μM, mean value)): 0.05 µM"
"CNC(=O)c1ccc(-n2c(NC(C)C)nc3c(c2=O)C[C@@H](C)N(C(=O)c2ccc(Cl)c(C(F)(F)F)c2)C3)c(C2CC2)c1 (single isomer, unassigned) [Compound C661a]",0.07 µM,> 50 µM,
"COc1cc(C(=O)NC2CC2)ccc1-n1c(NC(C)C)nc2c(c1=O)C[C@@H](C)N(C(=O)c1ccc(Cl)c(C(F)(F)F)c1)C2 (single isomer, unassigned) [Compound C678b]",0.04 µM,44.1 µM,
"COc1ccc(CNc2nc3c(c(=O)n2-c2ccccc2OC)C[C@H](C)N(C(=O)c2ccc(Cl)c(Cl)c2)C3)cc1 (single isomer, unassigned) [Compound C36Ba]",,,"EC50 [1, 2]: 1.21 µM; CC50 (HepG2 cells; [3]): > 50 µM"
"COc1ccccc1-n1c(NCc2ccc3c(c2)OCO3)nc2c(c1=O)CCN(C(=O)c1ccc(Cl)c(Cl)c1)C2 (single isomer, unassigned) [Compound C26b, 2-{[(2H-1,3-benzodioxol-5-yl)methyl]amino}-7-(3,4-dichlorobenzoyl)-3-(2-methoxyphenyl)-5,6,7,8-tetrahydropyrido[3,4-d]pyrimidin-4(3H)-one]",,,"EC50 [1, 2]: 1.04 µM; CC50 (HepG2 cells; [3]): > 50 µM"
"CNC(=O)c1ccc(-n2c(NC(C)C)nc3c(c2=O)C[C@@H](C)N(C(=O)c2ccc(Cl)c(C(F)F)c2)C3)c(Cl)c1 (single isomer, unassigned) [Compound C685b]",0.03 µM,> 50 µM,
"CCc1cc(C(=O)NC)ccc1-n1c(NC(C)C)nc2c(c1=O)C[C@@H](C)N(C(=O)c1ccc(Cl)c(Cl)c1)C2 (single isomer, unassigned) [Compound C383b]",0.17 µM,> 45 µM,
"CNC(=O)c1ccc(-n2c(N[C@@H](C)c3ccccc3)nc3c(c2=O)C[C@@H](C)N(C(=O)c2ccc(Cl)c(Cl)c2)C3)c(Cl)c1 (single isomer, unassigned) [Compound C386b]",0.1 µM,> 50 µM,
"CNC(=O)c1ccc(-n2c(NC(C)C)nc3c(c2=O)C[C@@H](C)N(C(=O)c2ccc(Cl)c(Cl)c2)C3)c(Cl)c1 (single isomer, unassigned) [Compound C293a]",,,"EC50 [1, 2]: 0.06 µM; CC50 (HepG2 cells; [3]): 33.4 µM"
"Cc1c[nH]c(-c2ccc(-n3c(NC(C)C)nc4c(c3=O)C[C@@H](C)N(C(=O)c3ccc(Cl)c(Cl)c3)C4)c(Cl)c2)n1 (single isomer, unassigned) [Compound C455b]",0.1 µM,> 50 µM,
"CNC(=O)c1ccc(-n2c(NC(C)C)nc3c(c2=O)C[C@@H](C)N(C(=O)c2ccc(Cl)c(C(F)(F)F)c2)C3)c(Cl)c1 (single isomer, unassigned) [Compound C639b]",0.02 µM,25.4 µM,
CNC(=O)c1ccc(-n2c(N[C@@H](C)C3CC3)nc3c(c2=O)C[C@@H](C)N(C(=O)c2ccc(Cl)c(Cl)c2)C3)c(Cl)c1 [Compound C387],0.06 µM,38 µM,
CNC(=O)c1ccc(-n2c(N[C@H]3C[C@@H]3c3ccc(OC)cc3)nc3c(c2=O)C[C@@H](C)N(C(=O)c2ccc(Cl)c(Cl)c2)C3)cc1 [Compound C452b],> 10 µM,> 50 µM,
"COc1ccccc1-n1c(N[C@@H](C)CO)nc2c(c1=O)CCN(C(=O)c1ccc(Cl)c(Cl)c1)C2 (single isomer, unassigned) [Compound C62Bb, 7-(3,4-dichlorobenzoyl)-2-{[(2*S)-1-hydroxypropan-2-yl]amino}-3-(2-methoxyphenyl)-5,6,7,8-tetrahydropyrido[3,4-d]pyrimidin-4(3H)-one]",,,"EC50 [1, 2]: 6.6 µM; CC50 (HepG2 cells; [3]): > 50 µM"
"CC(C)Nc1nc2c(c(=O)n1-c1ccc(-c3ncc[nH]3)cc1Cl)C[C@@H](C)N(C(=O)c1ccc(Cl)c(Cl)c1)C2 (single isomer, unassigned) [Compound C393a]",0.12 µM,14.1 µM,
"CNC(=O)[C@H]1CC[C@@H](n2c(N[C@H](C)c3ccc(OC(F)(F)F)cc3)nc3c(c2=O)C[C@@H](C)N(C(=O)c2ccc(Cl)c(Cl)c2)C3)CC1 [Compound C636, (1R,4s)-4-((R)-7-(3,4-dichlorobenzoyl)-6-methyl-4-oxo-2-(((S)-1-(4-(trifluoromethoxy)phenyl)ethyl)amino)-5,6,7,8-tetrahydropyrido[3,4-d]pyrimidin-3(4H)-yl)-N-methylcyclohexane-1-carboxamide]",0.23 µM,,CC50 (HepG2 cells): > 35 µM
CNC(=O)c1ccc(-n2c(OC(C)C)nc3c(c2=O)C[C@@H](C)N(C(=O)c2ccc(Cl)c(Cl)c2)C3)c(Cl)c1 [Compound C403b],0.08 µM,31.1 µM,
"CC(C)Nc1nc2c(c(=O)n1-c1ccc(-c3nccn3C)cc1Cl)C[C@@H](C)N(C(=O)c1ccc(Cl)c(Cl)c1)C2 (single isomer, unassigned) [Compound C392b]",0.12 µM,26.7 µM,
"CNc1noc2cc(-n3c(NC(C)C)nc4c(c3=O)C[C@@H](C)N(C(=O)c3ccc(Cl)c(Cl)c3)C4)c(C)cc12 (single isomer, unassigned) [Compound C447a]",0.23 µM,> 50 µM,
"CNC(=O)c1ccc(-n2c(NC(C)C)nc3c(c2=O)C[C@@H](C)N(C(=O)c2ccc(Cl)c(Cl)c2)C3)c(Cl)c1 (atropisomer, axis not shown) [Compound C293b, 3-chloro-4-[(6R)-7-(3,4-dichlorobenzoyl)-6-methyl-4-oxo-2-[(propan-2-yl)amino]-5,6,7,8-tetrahydropyrido[3,4-d]pyrimidin-3(4H)-yl]-N-methylbenzamide]",,,"EC50 [1, 2]: 0.06 µM; CC50 (HepG2 cells; [3]): 27.1 µM"
"CNC(=O)c1ccc(-n2c(N[C@@H](C)C3CC3)nc3c(c2=O)C[C@@H](C)N(C(=O)c2ccc(Cl)c(Cl)c2)C3)c(Cl)c1 (single isomer, unassigned) [Compound C387b]",0.06 µM,36.8 µM,
"CNc1noc2cc(-n3c(NC(C)C)nc4c(c3=O)C[C@@H](C)N(C(=O)c3ccc(Cl)c(Cl)c3)C4)c(C)cc12 (single isomer, unassigned) [Compound C447b]",0.05 µM,> 50 µM,
CNC(=O)c1ccc(-n2c(N[C@H](C)c3ccc(OC(F)F)cc3)nc3c(c2=O)C[C@@H](C)N(C(=O)c2ccc(Cl)c(Cl)c2)C3)cc1 [Compound C411b],0.07 µM,42.1 µM,
"COc1ccccc1-n1c(NCc2ccc3c(c2)OCO3)nc2c(c1=O)CCN(C(=O)c1ccc(Cl)c(Cl)c1)C2 (single isomer, unassigned) [Compound C26a, 2-{[(2H-1,3-benzodioxol-5-yl)methyl]amino}-7-(3,4-dichlorobenzoyl)-3-(2-methoxyphenyl)-5,6,7,8-tetrahydropyrido[3,4-d]pyrimidin-4(3H)-one]",,,"EC50 [1, 2]: 1.42 µM; CC50 (HepG2 cells; [3]): > 50 µM"
"COc1ccc([C@H](C)Nc2nc3c(c(=O)n2-c2ccc(NC(C)=O)cc2)C[C@@H](C)N(C(=O)c2ccc(Cl)c(Cl)c2)C3)cc1 (single isomer, unassigned) [Compound C410a]",0.95 µM,> 50 µM,
"CC(C)Nc1nc2c(c(=O)n1-c1ccc(C(=O)NC3CC3)cc1Cl)C[C@@H](C)N(C(=O)c1ccc(Cl)c(C(F)(F)F)c1)C2 (single isomer, unassigned) [Compound C673b]",0.03 µM,> 50 µM,
"CNC(=O)c1ccc(-n2c(NC(C)C)nc3c(c2=O)C[C@@H](C)N(C(=O)c2ccc(Cl)c(C(F)(F)F)c2)C3)c(OC)c1 (single isomer, unassigned) [Compound C643a]",0.04 µM,> 50 µM,
